# Target: T1, human CXCR3 (Homo sapiens, UniProt P49682)
# T1 construct: expressed in transfected cells
# T1 sequence (P49682 1-368): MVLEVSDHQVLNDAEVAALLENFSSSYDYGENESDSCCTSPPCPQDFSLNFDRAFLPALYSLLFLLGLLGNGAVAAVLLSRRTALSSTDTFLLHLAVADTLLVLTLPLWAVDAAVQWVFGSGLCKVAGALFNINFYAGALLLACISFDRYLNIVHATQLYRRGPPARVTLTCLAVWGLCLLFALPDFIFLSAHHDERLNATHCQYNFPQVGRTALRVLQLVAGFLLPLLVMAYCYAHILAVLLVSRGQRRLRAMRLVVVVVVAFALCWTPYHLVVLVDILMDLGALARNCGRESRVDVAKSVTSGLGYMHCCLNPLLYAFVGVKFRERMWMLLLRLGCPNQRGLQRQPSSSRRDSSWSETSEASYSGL
# Test: Inhibition of IP-10-induced transient Ca2+ rise in CXCR3/CHO cells
# Type: cell-based
# Conditions: human IP-10 30 nM
# Description: An Inhibitory Experiment Against the Binding of IP-10 and CXCR3 (the Activity of that Ca Ion (Ca^2+) is Raised in Transient and Induced by IP-10)
# The CHO cell (CXCR3/CHO cell) which overexpresses human CXCR3 in stable was suspended with Ham's F-12 culture medium and FBS (10%), was rolled up in 96well plate to become 3.0×10^4 cell/well. After the plate was incubated for one day at 37° C., removed the cultural supernatant, added Ham's F-12 culture media (Fura-2AM (5 μM), Probenecid (2.5 mM) and HEPES (20 mM; pH7.4) were included) to 80 μl/well, incubated for one hour at 37° C. in light exclusion state. […] The transient rise of the intracellular Ca^2+ concentration induced by human IP-10 was measured by means of Ca^2+ detector for 96well (made in Hamamatsu Photonics), and the inhibitory rate (%) of the test compound was calculated by the following calculation formula.
# Ec: The measured value of the Ca^2+ transient rise induced by IP-10 Ea: The measured value of the Ca^2+ transient rise induced by IP-10 when a test compound was added
row,IC50,Compound
1,3.2 µM,"C#CCOc1ccc(CN2CCC3(CCCCC3)CC2)cc1 [Example 5, 3-[4-(prop-2-yn-1-yloxy)benzyl]-3-azaspiro[5.5]undecane]"
2,3.4 µM,"CCCN1C(=O)N(CCc2ccccc2)C=CC12CCN(Cc1ccc(Cl)cc1)CC2 [Example 9, 9-(4-chlorobenzyl)-3-(2-phenylethyl)-1-propyl-1,3,9-triazaspiro[5.5]undec-4-en-2-one]"
3,2.1 µM,"CCCCN1CCC2(CCN(Cc3ccc(Cl)cc3)CC2)N(C2CCCC2)C1=O [Example 11, 3-butyl-9-(4-chlorobenzyl)-1-cyclopentyl-1,3,9-triazaspiro[5.5]undecan-2-one]"

row,Compound,IC50
1,"O=C1C(Cc2ccccc2)CCC2(CCN(Cc3ccc(Cl)cc3)CC2)N1CC1CC1 (stereo not shown) [Example 15, 3-benzyl-9-(4-chlorobenzyl)-1-(cyclopropylmethyl)-1,9-diazaspiro[5.5]undecan-2-one]",1.1 µM
